These results are taken from PMC12080345 (Journal of medicinal chemistry, 2023).

This data set in a line: Acute toxicity assay in mice. The class given is in vivo. The following applies: 200 mg/kg.

For `COc1cc(Cn2ccc3cc(C(=O)NCC45C[C@H]6C[C@@H](C4)C[C@@H](C5)C6)ccc32)ccc1C(=O)NO` [4e, N-(((3r,5r,7r)-Adamantan-1-yl)methyl)-1-(4-(hydroxycarbamoyl)-3-methoxybenzyl)-1H-indole-5-carboxamide], the adverse effect entry was “no observed adverse effect”.
